Reference: ChEMBL document CHEMBL1201862, “PubChem BioAssay data set” (2004)
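Protocol summary: plate cells (96-well), add compound at 5 concentrations, incubate 48 h, interpolate endpoints linearly. The concentration for 50% growth inhibition is given as GI50.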 Activity calls are given as the source filed them. No stated cut-off is given here; in the data, active = GI50 up to about 1.1 µM and inactive = higher.

Legend:
Test in all cases: NCI tumour cell line growth inhibition, 48 h
RXF 393 = tested on: RXF 393
786-0 = tested on: 786-0
OVCAR-8 = tested on: OVCAR-8
CCRF-CEM = tested on: CCRF-CEM
UACC-62 = tested on: UACC-62
HL-60 = tested on: HL-60
MDA-N = tested on: MDA-N
MOLT-4 = tested on: MOLT-4
BT-549 = tested on: BT-549
PC-3 = tested on: PC-3
K562 = tested on: K562
SK-MEL-5 = tested on: SK-MEL-5
NCI-H522 = tested on: NCI-H522
M14 = tested on: M14
IGROV-1 = tested on: IGROV-1
CAKI-1 = tested on: CAKI-1
SN12C = tested on: SN12C
A498 = tested on: A498
NCI/ADR-RES = tested on: NCI/ADR-RES
MCF7 = tested on: MCF7
OVCAR-4 = tested on: OVCAR-4
SK-MEL-2 = tested on: SK-MEL-2
DU-145 = tested on: DU-145
NCI-H460 = tested on: NCI-H460
U-251 = tested on: U-251
A549 = tested on: A549
RPMI-8226 = tested on: RPMI-8226
Hs-578T = tested on: Hs-578T
OVCAR-3 = tested on: OVCAR-3
SNB-19 = tested on: SNB-19
UACC-257 = tested on: UACC-257
HOP-62 = tested on: HOP-62
SF-268 = tested on: SF-268
SK-OV-3 = tested on: SK-OV-3
TK-10 = tested on: TK-10
EKVX = tested on: EKVX
HT-29 = tested on: HT-29
ACHN = tested on: ACHN
HCC 2998 = tested on: HCC 2998
NCI-H23 = tested on: NCI-H23
MDA-MB-231 = tested on: MDA-MB-231
SNB-75 = tested on: SNB-75
SR = tested on: SR
T47D = tested on: T47D
SW-620 = tested on: SW-620
COLO 205 = tested on: COLO 205
HOP-92 = tested on: HOP-92
OVCAR-5 = tested on: OVCAR-5
NCI-H226 = tested on: NCI-H226
MDA-MB-435 = tested on: MDA-MB-435
SF-295 = tested on: SF-295
SF-539 = tested on: SF-539
KM12 = tested on: KM12
HCT-15 = tested on: HCT-15
LOX IMVI = tested on: LOX IMVI
UO-31 = tested on: UO-31
Malme-3M = tested on: Malme-3M
SK-MEL-28 = tested on: SK-MEL-28
HCT-116 = tested on: HCT-116

## Fc1cc(C2=C[C@H](c3ccc4c(c3)OCO4)NC(=S)N2)c(Cl)cc1Cl
RXF 393
  GI50: 23 µM (inactive)
786-0
  GI50: 39.9 µM (inactive)
OVCAR-8
  GI50: 41.2 µM (inactive)
CCRF-CEM
  GI50: 21.8 µM (inactive)
UACC-62
  GI50: 35.9 µM (inactive)
HL-60
  GI50: 0.0303 µM (active)
MDA-N
  GI50: 35.6 µM (inactive)
MOLT-4
  GI50: 23.4 µM (inactive)
BT-549
  GI50: 57 µM (inactive)
PC-3
  GI50: 21.4 µM (inactive)
K562
  GI50: 32.1 µM (inactive)
SK-MEL-5
  GI50: 10.3 µM (inactive)
NCI-H522
  GI50: 31.6 µM (inactive)
M14
  GI50: 40.4 µM (inactive)
IGROV-1
  GI50: 27.4 µM (inactive)
CAKI-1
  GI50: 34.8 µM (inactive)
SN12C
  GI50: 27.4 µM (inactive)
A498
  GI50: 20.8 µM (inactive)
NCI/ADR-RES
  GI50: 51.6 µM (inactive)
MCF7
  GI50: 32.2 µM (inactive)
OVCAR-4
  GI50: 38.1 µM (inactive)
SK-MEL-2
  GI50: 20.9 µM (inactive)
DU-145
  GI50: 49 µM (inactive)
NCI-H460
  GI50: 25.5 µM (inactive)
U-251
  GI50: 22.9 µM (inactive)
A549
  GI50: 35.6 µM (inactive)
RPMI-8226
  GI50: 22.9 µM (inactive)
Hs-578T
  GI50: 70 µM (inactive)
OVCAR-3
  GI50: 30.2 µM (inactive)
SNB-19
  GI50: 57.4 µM (inactive)
UACC-257
  GI50: 26.3 µM (inactive)
HOP-62
  GI50: 39.5 µM (inactive)
SF-268
  GI50: 45.7 µM (inactive)
SK-OV-3
  GI50: 57 µM (inactive)
TK-10
  GI50: 28.8 µM (inactive)
EKVX
  GI50: 22.2 µM (inactive)
HT-29
  GI50: 27.9 µM (inactive)
ACHN
  GI50: 28.8 µM (inactive)
HCC 2998
  GI50: 23.2 µM (inactive)
NCI-H23
  GI50: 60.8 µM (inactive)
MDA-MB-231
  GI50: 23.8 µM (inactive)
SNB-75
  GI50: 20.8 µM (inactive)
SR
  GI50: 31.9 µM (inactive)
T47D
  GI50: 20.2 µM (inactive)
SW-620
  GI50: 36 µM (inactive)
COLO 205
  GI50: 20.9 µM (inactive)
HOP-92
  GI50: 25.9 µM (inactive)
OVCAR-5
  GI50: 44.1 µM (inactive)
NCI-H226
  GI50: 59.2 µM (inactive)
MDA-MB-435
  GI50: 34.6 µM (inactive)
SF-295
  GI50: 31.9 µM (inactive)
SF-539
  GI50: 46.7 µM (inactive)
KM12
  GI50: 38 µM (inactive)
HCT-15
  GI50: 37.4 µM
LOX IMVI
  GI50: 37.2 µM (inactive)
UO-31
  GI50: 39.2 µM (inactive)
Malme-3M
  GI50: 30.7 µM (inactive)
SK-MEL-28
  GI50: 40.3 µM (inactive)
HCT-116
  GI50: 27.5 µM (inactive)

## CC(C)(C)c1cc(C2COC(=O)COCC(=O)OCCOCCOCCO2)cc(C(C)(C)C)c1O (stereo not drawn)
RXF 393
  GI50: 20.7 µM (inactive)
786-0
  GI50: 21.4 µM (inactive)
OVCAR-8
  GI50: 62.4 µM (inactive)
CCRF-CEM
  GI50: > 100 µM (inactive)
UACC-62
  GI50: 27.2 µM (inactive)
HL-60
  GI50: > 31.6 µM (inactive)
MDA-N
  GI50: 19.6 µM (inactive)
MOLT-4
  GI50: > 100 µM (inactive)
BT-549
  GI50: > 57.5 µM (inactive)
PC-3
  GI50: 40.2 µM (inactive)
K562
  GI50: > 100 µM (inactive)
SK-MEL-5
  GI50: > 100 µM (inactive)
NCI-H522
  GI50: > 52.8 µM (inactive)
M14
  GI50: 19.4 µM (inactive)
IGROV-1
  GI50: > 100 µM (inactive)
CAKI-1
  GI50: 24.7 µM (inactive)
SN12C
  GI50: 14.4 µM (inactive)
A498
  GI50: > 51.4 µM (inactive)
NCI/ADR-RES
  GI50: > 100 µM (inactive)
MCF7
  GI50: > 100 µM (inactive)
OVCAR-4
  GI50: > 100 µM (inactive)
SK-MEL-2
  GI50: 32.1 µM (inactive)
DU-145
  GI50: 21 µM (inactive)
NCI-H460
  GI50: 30.9 µM (inactive)
U-251
  GI50: 34.3 µM (inactive)
A549
  GI50: > 31.6 µM (inactive)
RPMI-8226
  GI50: > 100 µM (inactive)
Hs-578T
  GI50: 17.9 µM (inactive)
OVCAR-3
  GI50: > 100 µM (inactive)
SNB-19
  GI50: > 100 µM (inactive)
UACC-257
  GI50: > 61.7 µM (inactive)
HOP-62
  GI50: 46.7 µM (inactive)
SF-268
  GI50: 18.2 µM (inactive)
SK-OV-3
  GI50: 24.9 µM (inactive)
TK-10
  GI50: 20.4 µM (inactive)
EKVX
  GI50: > 75.7 µM (inactive)
HT-29
  GI50: 98.9 µM (inactive)
ACHN
  GI50: 19.6 µM (inactive)
HCC 2998
  GI50: 14.5 µM (inactive)
NCI-H23
  GI50: > 77.6 µM (inactive)
MDA-MB-231
  GI50: 44.6 µM (inactive)
SNB-75
  GI50: 16.1 µM (inactive)
SR
  GI50: 58.1 µM (inactive)
T47D
  GI50: > 100 µM (inactive)
SW-620
  GI50: > 65.8 µM (inactive)
COLO 205
  GI50: > 100 µM (inactive)
HOP-92
  GI50: 22.9 µM (inactive)
OVCAR-5
  GI50: 28.4 µM (inactive)
NCI-H226
  GI50: > 100 µM (inactive)
MDA-MB-435
  GI50: 20.5 µM (inactive)
SF-295
  GI50: 23.6 µM (inactive)
SF-539
  GI50: 45.5 µM (inactive)
KM12
  GI50: > 100 µM (inactive)
HCT-15
  GI50: > 100 µM
LOX IMVI
  GI50: 31 µM (inactive)
UO-31
  GI50: 18.6 µM (inactive)
Malme-3M
  GI50: > 100 µM (inactive)
SK-MEL-28
  GI50: 19.2 µM (inactive)
HCT-116
  GI50: > 100 µM (inactive)
